Values of other authors in patent publication US10758506B2, “Amino acid compositions for the treatment of porcine epidemic diarrhea” (priority 2014, dated 2020).

Conditions: Health Phys., 106(6):734-44, 2014

Row | Compound | active anion secretion and/or paracellular permeability
1 | N=C(N)NCCC[C@H](N)C(=O)O [Arginine] | activate active anion secretion and/or increase paracellular permeability
2 | C[C@H](N)C(=O)O [alanine] | activate active anion secretion and/or increase paracellular permeability
3 | NC(=O)C[C@H](N)C(=O)O [asparagine] | activate active anion secretion and/or increase paracellular permeability
4 | N[C@@H](CS)C(=O)O [cysteine] | activate active anion secretion and/or increase paracellular permeability
5 | N[C@@H](CCC(=O)O)C(=O)O [glutamic acid] | activate active anion secretion and/or increase paracellular permeability
6 | NC(=O)CC[C@H](N)C(=O)O [glutamine] | activate active anion secretion and/or increase paracellular permeability
7 | N[C@@H](Cc1c[nH]cn1)C(=O)O [histidine] | activate active anion secretion and/or increase paracellular permeability
8 | CC(C)C[C@H](N)C(=O)O [leucine] | activate active anion secretion and/or increase paracellular permeability
9 | CSCC[C@H](N)C(=O)O [methionine] | activate active anion secretion and/or increase paracellular permeability
10 | N[C@@H](Cc1ccccc1)C(=O)O [phenylalanine] | activate active anion secretion and/or increase paracellular permeability
